According to patent US9464093B2, “Substituted imidazo[4',5':4,5]cyclopenta[1,2-e]pyrrolo[1,2-a]pyrazines and oxazolo[4',5':4,5]cyclopenta[1,2-e]pyrrolo[1,2-a]pyrazines for treating brain cancer” (Mayo Foundation for Medical Education and Research, priority 2012, dated 2016):
Entries after “also recorded” stand apart in the source; their conditions may differ.

Tests used:
T47D = test: Cell proliferation assay T47D (Example 6); assay type: cell-based; settings: Homo sapiens, T47D; cells counted on the sixth day
Protocol: (§1) In-vitro assays were performed to assess the cytotoxic impact of AA analogues on breast cancer cell lines (MB-468, MB-453, and T47D), lymphoma cell lines (Raji and OCI-LY10), and glioblastoma multiforme cell line (U87). The three breast cancer cell lines represent three subtypes of breast cancer: triple-negative (MB-468), Her2-positive (MB-453), and hormone receptor positive (T47D).
(§2) The IC50 values obtained for each compound represents the concentration of the tested compound that is needed to decrease the cancer cell count by 50%. Cancer cells were seeded in triplicate at 50,000 cells per well of a 24-well plate in 0.5 ml medium. […] Cells were harvested and counted on the sixth day using a Beckman Coulter counter.

[1] = test system: DU145 prostate cancer cells; test: Cytotoxicity, MTT method, DU145; settings: Homo sapiens, DU-145, 24 h, read-out: Cytotoxicity (IC50, μM) DU145
Protocol: The cell suspension in the culture medium was plated into each well of 96-well plates (10,000 cells/well/100 μL). After 24 h, testing compounds were added, and then the plates were incubated for an additional 24 h in a humidified atmosphere of 5% CO2 at 37° C. […] The IC50 value was determined by linear interpolation from the growth inhibition curve.

MB-468 = test: Cell proliferation assay MB-468 (Example 6); assay type: cell-based; settings: cells counted on the sixth day
Protocol: as §1, §2

[2] = test system: OCI-LY10 B lymphoma cells; test: OCI-LY10 orthotopic murine CNS lymphoma model; assay type: in vivo; settings: for Median Survival (Day) CNS Lymphoma (OCI-LY10): control 35; for survival (Kaplan-Meier) vs control, OCI-LY10 model / tumor growth (BLI) vs control, OCI-LY10 model: all treatment groups (2.5 or 5 mg/kg i.p. daily for 4 days); for tolerability, OCI-LY10 model: both dose levels (2.5 and 5 mg/kg)
Protocol: (§3) Female athymic mice (8-10 weeks old and weighing 20-25 g at the beginning of the study) were purchased from Harlan laboratories (Indianapolis, Ind.). They were housed in a temperature-controlled sterilized room (23±2° C.) with a 12-h light/dark cycle and free access to food and water throughout the study.
(§4) Murine brain tumor models were created by intracerebral injection of luciferase-transfected cancer cells in athymic mice under anesthesia using a stereotactic platform. For murine model for CNS lymphoma, 1×10^5 OCI-LY10 B lymphoma cells were used. For murine model for metastatic breast cancer of the brain (MBCB), 1×10^5 MB-468 triple-negative breast cancer cells were used. For murine model for glioblastoma multiforme (GBM), 1.75×10^5 U87 cells were used. Eight-week-old athymic mice underwent a minimum 7-day acclimation/quarantine prior to surgery. Surgery was performed in a laminar flow hood under sterile conditions. Tylenol 300 mg/kg PO was given for analgesia 48 hours before the surgery and continuing 48 hours postoperatively. Anesthesia was achieved by inhalation of 1-2% isoflurane. After the mouse became well anesthetized, it was placed in the Kopf stereotactic instrument. A small amount of BNP antibiotic cream (a mixture of Bacitracin, Neomycin and Polymyxin) was smeared on its eyes to prevent infection and corneal damage during surgery. A strip of soft fabric was placed over the mouse's body and tail to prevent excessive heat loss during surgery. The scalp area was cleaned with a 2% solution of Betadine and dried with cotton tipped applicator. A midline sagittal incision was made in the scalp. A small burr hole was drilled in the left skull with a surgical drill (Kopf) or a Dremel drill according to the coordinates (AP: 0.5 mm, LM: 2.5 mm) as determined by reference to the mouse brain atlas by Franklin and Paxinos. The dura mater was surgically exposed, and a 10 μl Hamilton syringe with a 26S-gauge beveled needle was lowered into the left cerebral hemisphere up to a depth of 3 mm and 5 μl of tumor cells were slowly infused (0.5 μl/min). The needle was left in place for 5 minutes to prevent reflux and then was slowly removed. The skin was closed with wound clips. The mice recovered from anesthesia and surgery in a warm environment and were not returned to their cages until motor activity returned. Cages were placed on top of a heating pad to minimize the loss of body heat during the recovery. The mice were monitored post-operatively at least twice a day for 5 days or until recovery was complete.
(§5) BLI was used to assess the impact of the treatments on the brain tumor growth. After intracerebral injection of cancer cells, all the mice were subjected to bioluminesence imaging (BLI) twice a week starting at day-4 post-intracerebral injection to monitor the real-time in vivo tumor growth. BLI was conducted using a Xenogen Lumina optical imaging system (Caliper Life Sciences, Hopkinton, Mass.). Mice were anesthetized with isofluorane before intraperitoneal injections of luciferin at a dose of 150 mg/kg, providing a saturating substrate concentration for luciferase enzyme. Peak luminescent signals were recorded 10 minutes after luciferin injection. Regions of interest encompassing the intracranial area of signal were defined using Living Image software (Xenogen, Alameda, Calif.), and the total photons/s/steradian/cm2 was recorded.
(§6) Five mice each were assigned to one of seven treatment groups or one vehicle control group for all three brain tumor models. Mice in experimental groups received either 2.5 mg/kg or 5 mg/kg of AA, CEAA, or DCEAA by intraperitoneal route daily for 4 days. For CAA, only 2.5 mg/Kg by intraperitoneal route daily for 4 days was used. The control group received DMSO by intraperitoneal route for 4 days. The end point for the survival analysis was the development of limb paralysis. Animals were checked at least twice per day. Animals that reached the end point were sacrificed by CO2 anesthesia. […]

OCI-LY10 = test: Cell proliferation assay OCI-LY10 (Example 6); assay type: cell-based; settings: Homo sapiens, OCI-Ly10; cells counted on the sixth day
Protocol: as §1, §2

[3] = test system: MB-468 triple-negative breast cancer cells; test: MB-468 orthotopic murine model for metastatic breast cancer of the brain; assay type: in vivo, athymic mice; settings: for Median Survival (Day) Breast Cancer (MB-468): control 52; for survival (Kaplan-Meier) vs control, MB-468 model / tumor growth (BLI) vs control, MB-468 model: all treatment groups (2.5 or 5 mg/kg i.p. daily for 4 days); for tolerability, MB-468 model: both dose levels (2.5 and 5 mg/kg)
Protocol: as §3, §4, §5, §6

MB-453 = test: Cell proliferation assay MB-453 (Example 6); assay type: cell-based; settings: cells counted on the sixth day
Protocol: as §1, §2

U87 cells = test: U87 orthotopic murine model for glioblastoma multiforme; assay type: in vivo; settings: for Median Survival (Day) GBM (U-87): control 25.5; for survival (Kaplan-Meier) vs control, U87 model / tumor growth (BLI) vs control, U87 model: all treatment groups (2.5 or 5 mg/kg i.p. daily for 4 days); for tolerability, U87 model: both dose levels (2.5 and 5 mg/kg)
Protocol: as §3, §4, §5, §6

[4] = 2.5 mg/kg intraperitoneal daily for 4 days
[5] = 5 mg/kg intraperitoneal daily for 4 days

Compound `CN1C(=O)N[C@H]2[C@@H]3NC(=O)c4ccc(Cl)n4[C@@H]3C[C@]21O` [CAA, chloroagelastatin A] has an IC50 (T47D) of 29.8 nM, an IC50 [1] of 1.2 µM and an IC50 (MB-468) of 81.1 nM. The “weight loss, OCI-LY10 model” value ([2]; 2.5 mg/kg) was “Some weight loss”, the “Median Survival (Day) CNS Lymphoma (OCI-LY10)” value (“Median Survival … (OCI-LY10)” for short) [2, 4] was 49 days and the “survival (Kaplan-Meier) vs control, OCI-LY10 model” value [2] was “significantly prolonged survival; also recorded: prolongation of survival”. For the same compound, the “tumor growth (BLI) vs control, OCI-LY10 model” value [2] was “significantly decreased tumor growth; also recorded: significantly slower”, the IC50 (OCI-LY10) was 102 nM and the “weight loss, MB-468 model” value ([3]; 2.5 mg/kg) was “Some weight loss”. For the same compound, the “Median Survival (Day) Breast Cancer (MB-468)” value (shortened to “Median Survival … (MB-468)”) [3, 4] was 75 days, the “survival (Kaplan-Meier) vs control, MB-468 model” value [3] was “significantly prolonged survival” and the “tumor growth (BLI) vs control, MB-468 model” value [3] was “significantly decreased tumor growth”. For the same compound, the IC50 (MB-453) was 91.9 nM, the “weight loss, U87 model” value (U87 cells; 2.5 mg/kg) was “Some weight loss” and the “Median Survival (Day) GBM (U-87)” value (U87 cells; [4]) was 31 days. For the same compound, the “survival (Kaplan-Meier) vs control, U87 model” value (U87 cells) was “significantly prolonged survival; also recorded: prolongation of survival” and the “tumor growth (BLI) vs control, U87 model” value (U87 cells) was “significantly decreased tumor growth; also recorded: significantly slower”.

With `CCN1C(=O)N[C@H]2[C@@H]3NC(=O)c4ccc(Cl)n4[C@@H]3C[C@]21O` [CEAA, chloroethylagelastatin A] the IC50 (T47D) was 20.7 nM, the IC50 [1] was 2.6 µM and the IC50 (MB-468) was 277 nM. For the same compound, the “Median Survival … (OCI-LY10)” value [2, 4] was 57 days, the “Median Survival … (OCI-LY10)” value [2, 5] was 65 days and the “survival (Kaplan-Meier) vs control, OCI-LY10 model” value [2] was “significantly prolonged survival; also recorded: prolongation of survival”. The “tumor growth (BLI) vs control, OCI-LY10 model” value [2] was “significantly decreased tumor growth; also recorded: significantly slower”, the “tolerability, OCI-LY10 model” value [2] was “well tolerated” and the IC50 (OCI-LY10) was 119 nM. For the same compound, the “Median Survival … (MB-468)” value [3, 4] was 56 days, the “Median Survival … (MB-468)” value [3, 5] was 64 days and the “survival (Kaplan-Meier) vs control, MB-468 model” value [3] was “significantly prolonged survival; also recorded: prolongation of survival”. The “tumor growth (BLI) vs control, MB-468 model” value [3] was “significantly decreased tumor growth; also recorded: significantly slower”, the “tolerability, MB-468 model” value [3] was “well tolerated” and the IC50 (MB-453) was 141 nM. For the same compound, the “Median Survival (Day) GBM (U-87)” value (U87 cells; [4]) was 29 days, the “Median Survival (Day) GBM (U-87)” value (U87 cells; [5]) was 31 days and the “survival (Kaplan-Meier) vs control, U87 model” value (U87 cells) was “significantly prolonged survival; also recorded: prolongation of survival”. For the same compound, the “tumor growth (BLI) vs control, U87 model” value (U87 cells) was “significantly decreased tumor growth; also recorded: significantly slower” and the “tolerability, U87 model” value (U87 cells) was “well tolerated”.

For `CCN1C(=O)N[C@H]2[C@@H]3NC(=O)c4cc(Cl)c(Cl)n4[C@@H]3C[C@]21O` [DCEAA, dichloroethylagelastatin A], the IC50 (T47D) was 101 nM, the IC50 [1] was 1.4 µM and the IC50 (MB-468) was 444 nM. For the same compound, the “Median Survival … (OCI-LY10)” value [2, 4] was 60 days, the “Median Survival … (OCI-LY10)” value [2, 5] was 69 days and the “survival (Kaplan-Meier) vs control, OCI-LY10 model” value [2] was “significantly prolonged survival; also recorded: prolongation of survival”. For the same compound, the “tumor growth (BLI) vs control, OCI-LY10 model” value [2] was “significantly decreased tumor growth; also recorded: significantly slower”, the “tolerability, OCI-LY10 model” value [2] was “well tolerated” and the IC50 (OCI-LY10) was 429 nM. For the same compound, the “Median Survival … (MB-468)” value [3, 4] was 61 days, the “Median Survival … (MB-468)” value [3, 5] was 75 days and the “survival (Kaplan-Meier) vs control, MB-468 model” value [3] was “significantly prolonged survival; also recorded: prolongation of survival”. For the same compound, the “tumor growth (BLI) vs control, MB-468 model” value [3] was “significantly decreased tumor growth; also recorded: significantly slower”, the “tolerability, MB-468 model” value [3] was “well tolerated” and the IC50 (MB-453) was 104 nM. For the same compound, the “Median Survival (Day) GBM (U-87)” value (U87 cells; [4]) was 30 days, the “Median Survival (Day) GBM (U-87)” value (U87 cells; [5]) was 34 days and the “survival (Kaplan-Meier) vs control, U87 model” value (U87 cells) was “significantly prolonged survival; also recorded: prolongation of survival”. The “tumor growth (BLI) vs control, U87 model” value (U87 cells) was “significantly decreased tumor growth; also recorded: significantly slower” and the “tolerability, U87 model” value (U87 cells) was “well tolerated”.
